Assay results taken from article PMC9299485, “4‐Iodopyrimidine Labeling Reveals Nuclear Translocation and Nuclease Activity for Both MIF and MIF2” (Chemistry (Weinheim an Der Bergstrasse, Germany), 2021).
Like-named read-outs stand apart in the source and are kept apart here.

Tests used:
Format in all cases: biochemical
[1] = target: T1, MIF (Homo sapiens, UniProt P14174); assay: MIF tautomerase activity inhibition (4-HPP substrate, UV 306 nm)
T1 construct: His tag (C); made in house; host or cells: Escherichia coli BL21 (DE3), pET-20b(+)
T1 sequence (P14174 2-115 limits assumed): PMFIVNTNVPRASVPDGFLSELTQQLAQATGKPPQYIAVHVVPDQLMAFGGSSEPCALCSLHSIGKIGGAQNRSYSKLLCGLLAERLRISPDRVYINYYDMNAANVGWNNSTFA
Description: 2. Preparation of recombinant MIF and MIF2.
The detailed procedure to produce C-terminal His-tagged recombinant human MIF was reported in our previous publications.[1,4,5] rhMIF was expressed through transforming a pET-20b(+) plasmid containing the target gene into Escherichia coli BL21 (DE3) according to literature procedures.[6] Overexpression was performed and cells were collected and sonicated.
The obtained supernatant was applied to a medium pressure chromatography system (Biologic Duoflow) equipped with a His trap HP (5 mL) column with detection at 280 nm for the eluent.
The column was washed with a binding buffer containing 50 mM Tris and 10% glycerol at pH 7.4 and eluted with elution buffer containing 500 mM imidazole, 50 mM Tris, 10% glycerol at pH 7.4. The pure fractions (as judged by SDS-PAGE) were pooled and subjected to a PD-10 column (GE healthcare) that was equilibrated with PBS buffer at pH 7.4 to remove the high concentration of imidazole. The collected MIF solution was divided into 50 µL aliquots and stored at –80 °C. Purity of obtained protein was tested by SDS-PAGE and Coomassie staining.
The concentration of protein was determined using the Bradford assay.
(§1) The detailed procedure to produce recombinant human MIF2 was reported in our previous publications.[7] Gene sequences of the human MIF2 gene (Invitrogen) was adapted to bacterial expression. After subcloning into a pET20b(+) expression vector, IPTG-induced expression was performed in E.coli strain BL21(DE3). MIF2 proteins were overproduced overnight and harvested cells were resuspended and sonicated. The soluble fraction was puriﬁed using a Q sepharose column (GE Healthcare) with a gradient of NaCl. The fractions containing MIF2 were brought to 1.7 M ammonium sulfate and loaded on a phenyl sepharose column (GE Healthcare) and eluted with a gradient to 0 M ammonium sulfate in a 20 mM sodium phosphate buffer, pH 8.0. Finally, the proteins were purified by size exclusion chromatography on a Superdex75 column (GE Healthcare) in 20 mM sodium phosphate buffer, pH 8.0, with an elution volume characteristic for trimeric MIF2. The collected protein was concentrated using a VivaSpin centrifugation column with a molecular weight cut off at 5000 D a (Sartorius Stedim Biotech GmbH). Purified proteins were aliquoted, snap frozen in liquid nitrogen, and stored at –80 °C. Purity of obtained protein was tested by SDS-PAGE and coomassie staining. The concentration of protein was determined using the Bradford a ssay.
(§2) 3.1 MIF and MIF2 Inhibition
(§3) The protocol for measuring inhibition of MIF or MIF2 tautomerase enzyme activity was described previously.[5] 500 nM MIF solution (180 µL) or 100 nM MIF2 solution (180 µL) in boric acid buffer ([…], pH 6.2) was mixed with 20 mM EDTA solution (10 µL) in demineralized water. A solution of the desired compound dissolved in DMSO (10 µL) or blank DMSO (10 µL) was added. The resulting mixture was preincubated at room temperature for 10 minutes.
(§4) Subsequently, 50 µL of this mixture was mixed with 50 µL of a 1 mM 4-HPP solution for MIF or 1 mM PP solution for MIF2 in ammonium acetate buffer (50 mM, pH 6.0). Thereafter, MIF or MIF2 tautomerase activity was monitored by measuring the increase of UV absorbance at 306 nm for MIF or 300 nm for MIF2 over time. The MIF or MIF2 tautomerase activity of the mixture with blank DMSO dilution was set to 100% enzyme activity. Noncatalyzed conversion of the substrate in the mixture without MIF or MIF2 was set to 0%. The data acquired from the first 3 minutes of the measurement were used to calculate the initial conversion speed. All experiments were performed in triplicate and data processing was done using the program […]
(§5) Table S1. IC50 values (10 min) and inactivation parameters of synthesized compounds.
(§6) (1 picture or pasted object on this page, not shown here)

[2] = target: T2, MIF2 (Homo sapiens, UniProt P30046); assay: MIF2 tautomerase activity inhibition (PP substrate, UV 300 nm)
T2 construct: made in house; host or cells: E. coli BL21(DE3), pET20b(+)
Description: 2. Preparation of recombinant MIF and MIF2. […]
Purity of obtained protein was tested by SDS-PAGE and Coomassie staining. […]
as §1, §2, §3, §4, §5, §6

[3] = target: T1, MIF; assay: Kitz-Wilson inactivation kinetics on MIF tautomerase
Description: (§7) In order to derive the kinetic parameters for inactivation of MIFand MIF2, we employed the approach described by Kitz and Wilson. Briefly, four different concentrations of the inhibitor with four different pre-incubation times were selected. The assay conditions are described above with the difference in incubation time.
(§8) For the data analysis, the pre-incubation times for the different concentration of the inhibitor versus the remaining enzyme activity were plotted, so from the linear regression the slope of each concentration of the probe was obtained ( Table S3). Then the 1/slope versus 1/[inhibitor] were plotted (Figure 4) and from the linear regression line ki was derived from the 1/y -intercept and derived from the slope times the ki as described by Kitz and Wilson.
For example, for the probe 8 the equation is: Y = 7,476*X + 5,069
So, the kinact and the KI values are: kinact =1/5,069 =0.20 min-1
(also on this page, place not known: -1 0 1 2 3 0 50 100 log [FM011] (µM) DDT (%) -1 0 1 2 3 0 50 100 log [ZP308] (µM) DDT activity (%) 0.0 0.5 1.0 1.5 2.0 0 50 100 log [ZP307] (µM) DDT activity (%) 1.4 1.6 1.8 2.0 2.2 0 50 100 log [FM031] (µM) DDT activity (%) pre -incubation cond itions pre -incubation activity o f (Table 1/y-intercept) […]
(§9) Table S4. Kinetics studies results.
(§10) Time-dependent inhibition Kitz and Wilson curve […]
ln (MIF tautomerase activity %)
Time-dependent inhibition on MIF Y = 7,476*X + 5,069
Time-dependent inhibition on MIF Y = 12,07*X + 4,234 […]
ln (MIF2 tautomerase activity %)
(§11) Time-dependent inhibition on MIF2 Y = 299,5*X + 11,14 […]

[4] = target: T2, MIF2; assay: Kitz-Wilson inactivation kinetics on MIF2 tautomerase; settings: Kitz-Wilson analysis, ±SD, n=3
Description: as §7, §8
For example, for the probe 8 the equation is: Y = 7,476*X + 5,069 […]
as §9, §10
ln (MIF tautomerase activity %) […]
as §11

[5] = target: T1, MIF; assay: hgDNA cleavage by MIF in presence of tautomerase inhibitors; settings: Figure S3/S7
Description: (§12) 7. Nuclease activity of MIF and MIF2.
(§13) Human genomic DNA was obtained from RPE-1 cells by DNA extraction following the protocol described in literature.[10] The nuclease assays were conducted by following the procedure described previously.[8] hgDNA (200 ng/reaction) was incubated with MIF or MIF2 in final concentration of 0.62 -20 µM as indicated in 10Mm Tris-HCl buffer (pH 7.0) containing 10mM MgCl2 (B and C) or specific buffer as indicated at 37°C for two hours. The reaction was terminated with loading buffer containing 10mM EDTA and incubation on ice. The human genomic DNA samples were immediately separated on a 1% agarose gel containing SYBR Safe (ThermoFisher) in 0.5 X TBE buffer with initial switch time of 1.5 s and a final switch time of 3.5 s for 12 hours at 6 V/cm. DNA was further detected by chemiluminescence.
(§14) Figure S7. hgDNA cleavage activity of MIF and MIF2. (A) The MIF2 nuclease activity is Mg 2+- […]
(§15) BITC is a covalent inhibitor that can form covalent bond with the N-terminal proline.[11] (C) […]
as §6

[6] = target: T2, MIF2; assay: hgDNA cleavage by MIF2 in presence of tautomerase inhibitors; settings: Figure S3/S7
Description: as §12, §13, §14, §15, §6

T2 sequence (P30046 2-118 limits assumed): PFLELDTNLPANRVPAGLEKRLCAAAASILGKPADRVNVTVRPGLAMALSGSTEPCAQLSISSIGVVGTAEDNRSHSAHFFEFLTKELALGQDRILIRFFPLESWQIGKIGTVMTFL

O=C(NCCNc1ccc([N+](=O)[O-])c2nonc12)c1ccc(-c2cc(I)ncn2)cc1 [Compound 8]
IC50 ([1]; Table 2, 10 min pre-incubation, ±SD, n=3, read-out: IC50 MIF): 270 ± 85 nM
IC50 ([1]; approximate, read-out: IC50 on MIF): ~200 nM
improvement of potency for MIF2 inhibition compared to parental inhibitor 2 [2]: 2–6 factor
IC50 ([2]; Table 2, 10 min pre-incubation, ±SD, n=3, read-out: IC50 MIF2): 20000 ± 2200 nM
KI on MIF relative to IC50 ([3]; KI higher than IC50): about 10 times
KI (inactivation) ([3]; Kitz-Wilson analysis, ±SD, n=3, read-out: KI MIF (inhibition constant)): 1500 ± 200 nM
kinact ([3]; Kitz-Wilson analysis, ±SD, n=3, read-out: kinact MIF (rate of enzyme inactivation) (converted)): 0.00333 s⁻¹
kinact MIF2 (rate of enzyme inactivation) [4]: 0.088 ± 0.012 min⁻¹
KI (inactivation) ([4]; read-out: KI MIF2 (inhibition constant)): 26000 ± 3200 nM
kinact ([4]; read-out: kinact MIF2 (rate of enzyme inactivation)): 0.001 to 0.0015 s⁻¹
effect on DNA cleavage by MIF [5]: could not rescue DNA cleavage
effect on DNA cleavage by MIF2 [6]: could not rescue DNA cleavage
